Data reported in US20060286630A1, “Posh interacting proteins and related methods” (Proteologics, Inc., priority 2003, published 2006).

Columns and labels:
[1] = tested on: HBV; assay: Inhibition of HBV production in HepG2.2.15 cells; format: cell-based; settings: 3 μM, treated every 24 hours for 4 days, FIG. 35 lanes 7 and 8
Description: HepG2.2.15 cells were plated on 9 cm dishes and allowed to grow in 8% FCS for 5 days up to 70% confluence. After 5 days, cells were washed twice with PBS and re-supplied with fresh DMEM without FCS. In this medium, cells were treated every 24 hours with the depicted solutions (3 μl solution/11 ml medium) for another 4 days (4 treatments total). After 4 days, medium was collected from each plate, viruses were sedimented and analyzed.
Detection of HBV proteins was performed essentially as described in Paran, N et al (2001) EMBO J 20(16):4443-4453.

[2] = tested on: HIV-1; settings: H89 50 μM; HeLa SS6 cells transfected with pNLenv-1; VLPs collected twenty minutes after shift from 20° C. to 37° C.
Description: HeLa SS6 cells were transfected with pNLenv-1PTAP or pNLenv-1ATAA (L-domain mutant). Eighteen hours post-transfection, cells were transferred to 20° C. for two hours in order to inhibit transport of viral particles from the trans-Golgi (TGN) to the plasma membrane (PM). Subsequently, the PKA inhibitor, H89 (50 μM) (Biosource, Cat. No. PHZ1114) or DMSO were added to the cells and dishes were transferred to 37° C. to initiate transport from the TGN to the PM. Reverse transcriptase activity was assayed from virus-like-particles collected from cell supernatant twenty minutes later.

[3] = tested on: HIV-1; settings: Cartier et al., 2003, J Biol Chem., 278:35211-9; cited from earlier work
[4] = tested on: Bacterially expressed recombinant maltose-binding-protein (MBP)-hPOSH [MBP: P0AEX9]

With `O=C1C=CC(=O)N1c1ccc(OC(F)(F)C(F)F)c(N2C(=O)C=CC2=O)c1` [CAS number 14567-55-4] the HBV production [1] was “inhibit HBV production”.

For `Oc1c(Br)cc(Cl)cc1/C=N/c1ccccc1Br` [CAS number 414908-38-0], the HBV production [1] was “inhibit HBV production”.

For `O=S(=O)(NCCNCC=Cc1ccc(Br)cc1)c1cccc2cnccc12` [H89, N-[2-((Pbromocinnamyl)amino)ethyl]isoquinolinesulfonamide], the “RT activity of virus-like particles collected from cell supernatant” value [2] is listed as “complete inhibition” and the “HIV-1 release from cells” value [3] is listed as “able to block HIV-1 release from cells”.

For PKA catalytic subunit (PKAc), the “in-vitro phosphorylation of MBP-hPOSH by PKA catalytic subunit, immunoblot” value [4] was “POSH is phosphorylated by PKA”.
